Here are results for 2 molecules from patent US7476668B2, “Thiadiazine derivatives and use thereof as positive AMPA receptor modulators” (Les Laboratoires Servier, priority 2003, dated 2009).

The test system of the assay is AMPA receptors (rat cerebral cortex poly(A+) mRNA expressed in Xenopus oocytes). Put plainly: Excitatory currents induced by AMPA in Xenopus oocytes (two-electrode voltage-clamp). As to conditions: (S)-AMPA 10 μM; Xenopus oocytes injected with rat cortex mRNA; 20-24° C. The format is cell-based. Here is the method: Study of the Excitatory Currents Induced by AMPA in Xenopus Oocytes
mRNA's are prepared from cerebral cortex of male Wistar rats by the guanidinium thiocyanate/phenol/chloroform method. The poly (A^+) mRNA's are isolated by chromatography on oligo-dT cellulose and injected at a level of 50 ng per oocyte. The oocytes are incubated for 2 to 3 days at 18° C. to permit expression of the receptors and are then stored at 8-10° C.
Electrophysiological recording is carried out in a Plexiglass® chamber at 20-24° C. in OR2 medium (J. Exp. Zool., 1973, 184, 321-334) by the “voltage-clamp” method using two electrodes, a third electrode being placed in the bath serving as reference.
All the compounds are applied via the incubation medium and the electric current is measured at the end of the application period. (S)-AMPA is used in a concentration of 10 μM. For each compound studied, the concentration that doubles (EC2X) or quintuples (EC5X) the intensity of the current induced by AMPA alone (5 to 50 nA) is determined.
The compounds of the invention potentiate the excitatory effects induced by (S)-AMPA to a very considerable degree.

Molecules are shown by their SMILES.

With `CN1CNS(=O)(=O)c2c(Cl)sc(Cl)c21` [Example 6, 5,7-Dichloro-4-methyl-3,4-dihydro-2H-thieno[3,4-e][1,2,4]thiadiazine 1,1-dioxide], the “EC2X (concentration that doubles the intensity of the current induced by AMPA alone)” value amounted to 5.4 ± 2.8 µM and the “EC5X (concentration that quintuples the intensity of the current induced by AMPA alone)” value was 11.3 ± 4.9 µM.
With `CC(C)N1CNS(=O)(=O)c2sc(Cl)cc21` [Example 4, 6-Chloro-4-isopropyl-3,4-dihydro-2H-thieno[3,2-e][1,2,4]thiadiazine 1,1-dioxide], the “EC2X (concentration that doubles the intensity of the current induced by AMPA alone)” value came out at 4.2 ± 0.7 µM and the “EC5X (concentration that quintuples the intensity of the current induced by AMPA alone)” value was 11 ± 3 µM.
